The source of these data is patent US10442791B2, “DNA-PK inhibitors” (Vertex Pharmaceuticals Incorporated, priority 2012, dated 2019).

Broadly, the Ki is a dissociation constant, usually derived from enzyme kinetics or from competition with a known ligand. Low values mean higher affinity, high ones lower affinity.

Each structure is given as a SMILES string.

The target in the assay is DNA-PK (Homo sapiens, UniProt P78527). The assay is described as follows: DNA-PK inhibition assay (radiometric 33P-ATP kinase assay). In kind it is biochemical. The settings on record: 100 μM ATP; competitive tight-binding fit. Here is the method:
Compounds were screened for their ability to inhibit DNA-PK kinase using a standard radiometric assay. Briefly, in this kinase assay the transfer of the terminal ^33P-phosphate in ^33P-ATP to a peptide substrate is interrogated. The assay was carried out in 384-well plates to a final volume of 50 μL per well containing approximately 6 nM DNA-PK, 50 mM HEPES (pH 7.5), 10 mM MgCl2, 25 mM NaCl, 0.01% BSA, 1 mM DTT, 10 μg/mL sheared double-stranded DNA (obtained from Sigma), 0.8 mg/mL DNA-PK peptide ([…] obtained from American Peptide), and 100 μM ATP. Accordingly, compounds of the invention were dissolved in DMSO to make 10 mM initial stock solutions. Serial dilutions in DMSO were then made to obtain the final solutions for the assay. A 0.75 μL aliquot of DMSO or inhibitor in DMSO was added to each well, followed by the addition of ATP substrate solution containing ^33P-ATP (obtained from Perkin Elmer). The reaction was started by the addition of DNA-PK, peptide and ds-DNA. After 45 min. the reaction was quenched with 25 μL of 5% phosphoric acid. The reaction mixture was transferred to MultiScreen HTS 384-well PH plates (obtained from Millipore), allowed to bind for one hour, and washed three times with 1% phosphoric acid. Following the addition of 50 μL of Ultima Gold™ high efficiency scintillant (obtained from Perkin Elmer), the samples were counted in a Packard TopCount NXT Microplate Scintillation and Luminescence Counter (Packard BioScience). The Ki values were calculated using Microsoft Excel Solver macros to fit the data to the kinetic model for competitive tight-binding inhibition.
Regarding `CNC(=O)c1ccnc2c([C@H](C)CNc3cc(-c4cnc(NC5CCN(CC(F)F)CC5)nc4)ncn3)cccc12` [Compound 1034], the Ki was less than 30 nM.

`CNC(=O)c1c(F)cnc2c([C@H](C)CNc3cc(-c4cnc(OC)nc4)ncn3)cccc12` [Compound 1035] came in with a Ki of less than 30 nM.

The compound `CNC(=O)c1c(F)cnc2c([C@H](C)CNc3cc(-c4cnc(NC5CCN(CC(F)(F)F)CC5)nc4)ncn3)cccc12` [Compound 1036] gave a Ki of less than 30 nM.

`CNC(=O)c1c(F)cnc2c([C@H](C)CNc3cc(-c4cnc(NC5CCN(CC(F)F)CC5)nc4)ncn3)cccc12` [Compound 1037]: the Ki was less than 30 nM.

Consider `CNC(=O)c1ccnc2c([C@H](C)CNc3cc(-c4cnc(NC5CCN(CC(F)F)CC5)nc4)ncn3)ccc(F)c12` [Compound 1038], for which the Ki was less than 30 nM.

On to `CNC(=O)c1ccnc2c([C@H](C)CNc3cc(-c4ccc(N(C)C5CCN(CC(F)(F)F)CC5)nc4)ncn3)cccc12` [Compound 1042], for which the inhibition constant (Ki) was less than 30 nM.

As for `CNC(=O)c1c(F)cnc2c([C@H](C)CNc3cc(-c4ccc(CC5CCN(CC(F)F)CC5)nc4)ncn3)cccc12` [Compound 1043], the Ki is less than 30 nM.

`CNC(=O)c1c(F)cnc2c([C@H](C)CNc3cc(-c4cnc(CC5CCN(C(C)=O)CC5)nc4)ncn3)cccc12` [Compound 1044] showed a Ki of less than 30 nM.

The compound `CNC(=O)c1ccnc2c([C@H](C)CNc3cc(-c4cnc(CC5CCN(CC(F)F)CC5)nc4)ncn3)cccc12` [Compound 1045] had a Ki of less than 30 nM.

`CNC(=O)c1c(F)cnc2c([C@H](C)CNc3cc(-c4cnc(CC5CCN(CC(F)F)CC5)nc4)ncn3)cccc12` [Compound 1046]: the Ki is less than 30 nM.

`CNC(=O)c1ccnc2c([C@H](C)CNc3cc(-c4cnc(CC5CCN(CC(F)(F)F)CC5)nc4)ncn3)cccc12` [Compound 1047]: the Ki is less than 30 nM.

The compound `CNC(=O)c1c(F)cnc2c([C@H](C)CNc3cc(-c4cnc(CC5CCN(CC(F)(F)F)CC5)nc4)ncn3)cccc12` [Compound 1048] displayed a Ki of less than 30 nM.

Compound `CNC(=O)c1c(F)cnc2c([C@H](C)CNc3cc(-c4cnc(OC5CCN(C)CC5)nc4)ncn3)cccc12` [Compound 1050] showed a Ki of less than 30 nM.

`CNC(=O)c1ccnc2c([C@H](C)CNc3cc(-c4cnc(NCCNC(C)=O)nc4)ncn3)cccc12` [Compound 1051] came in with a Ki of less than 30 nM.

Compound `CNC(=O)c1c(F)cnc2c([C@H](C)CNc3cc(-c4cnc(NCCNC(C)=O)nc4)ncn3)cccc12` [Compound 1052] had a Ki of less than 30 nM.

In turn, `CNC(=O)c1ccnc2c([C@H](C)CNc3cc(-c4cnc(NCCNC(C)=O)nc4)ncn3)ccc(F)c12` [Compound 1053] returned a Ki of less than 30 nM.

Regarding `CNC(=O)c1ccnc2c([C@H](C)CNc3cc(-c4cnc(NCC(F)(F)F)nc4)ncn3)ccc(F)c12` [Compound 1054], the inhibition constant Ki was less than 30 nM.

The compound `CNC(=O)c1ccnc2c([C@H](C)CNc3cc(-c4cnc(NC5CCN(C(C)=O)CC5)nc4)ncn3)ccc(F)c12` [Compound 1055] gave a Ki of less than 30 nM.

`CNC(=O)c1ccnc2c([C@H](C)CNc3cc(-c4cnc(N(C)C5CCN(C)CC5)nc4)ncn3)cccc12` [Compound 1057]: the Ki was less than 30 nM.

Turning to `CNC(=O)c1c(F)cnc2c([C@H](C)CNc3cc(-c4cnc(N(C)C5CCN(C)CC5)nc4)ncn3)cccc12` [Compound 1058], the Ki is less than 30 nM.

`CNC(=O)c1c(F)cnc2c([C@H](C)CNc3cc(-c4cnc(N(C)C5CCN(C(C)=O)CC5)nc4)ncn3)cccc12` [Compound 1059] had a Ki of less than 30 nM.

`CNC(=O)c1ccnc2c([C@H](C)CNc3cc(-c4cnc(N(C)C5CCN(CC(F)F)CC5)nc4)ncn3)cccc12` [Compound 1060] yielded a Ki of less than 30 nM.

In turn, `CNC(=O)c1ccnc2c([C@H](C)CNc3cc(-c4cnc(N(C)C5CCN(CC(F)(F)F)CC5)nc4)ncn3)cccc12` [Compound 1061] gave a Ki of less than 30 nM.

Regarding `CNC(=O)c1c(F)cnc2c([C@H](C)CNc3cc(-c4cnc(N(C)C5CCN(CC(F)F)CC5)nc4)ncn3)cccc12` [Compound 1062], the Ki is less than 30 nM.

`CNC(=O)c1c(F)cnc2c([C@H](C)CNc3cc(-c4ccc(NC5CCN(C)CC5)nc4)ncn3)cccc12` [Compound 1063] returned a Ki of less than 30 nM.

For `CNC(=O)c1ccnc2c([C@H](C)CNc3cc(-c4ccc(NC5CCN(C(C)=O)CC5)nc4)ncn3)cccc12` [Compound 1064], the Ki was less than 30 nM.

For the compound `CNC(=O)c1c(F)cnc2c([C@H](C)CNc3cc(-c4ccc(NC5CCN(C(C)=O)CC5)nc4)ncn3)cccc12` [Compound 1065], the Ki was less than 30 nM.

For the compound `CNC(=O)c1ccnc2c([C@H](C)CNc3cc(-c4cnc(NCC(F)(F)F)nc4)ncn3)cccc12` [Compound 1066], the Ki is less than 30 nM.

In the case of `CNC(=O)c1ccnc2c([C@H](C)CNc3cc(-c4ccc(C5(O)COC5)nc4)ncn3)cccc12` [Compound 1067], the Ki is less than 30 nM.

`CNC(=O)c1c(F)cnc2c([C@H](C)CNc3cc(-c4ccc(C5(O)COC5)nc4)ncn3)cccc12` [Compound 1068]: the Ki was less than 30 nM.

As to `CNC(=O)c1ccnc2c([C@H](C)CNc3cc(-c4ccc(C5(O)COC5)nc4)ncn3)ccc(F)c12` [Compound 1069], the Ki is less than 30 nM.

On to `CNC(=O)c1ccnc2c([C@H](C)CNc3cc(-c4cnc(CC5CCN(C(C)=O)CC5)nc4)ncn3)cccc12` [Compound 1071], for which the Ki is less than 30 nM.

Consider `CNC(=O)c1ccnc2c([C@H](C)CNc3cc(-c4cnc(OC5CCN(C)CC5)nc4)ncn3)ccc(F)c12` [Compound 1073], for which the Ki is less than 30 nM.

The compound `CNC(=O)CNc1ncc(-c2cc(NC[C@@H](C)c3cccc4c(C(=O)NC)ccnc34)ncn2)cn1` [Compound 1074] had a Ki of less than 30 nM.

As to `CNC(=O)CNc1ncc(-c2cc(NC[C@@H](C)c3cccc4c(C(=O)NC)c(F)cnc34)ncn2)cn1` [Compound 1075], the inhibitory constant (Ki) is less than 30 nM.

In turn, `CNC(=O)c1c(F)cnc2c([C@H](C)CNc3cc(-c4cnc(NCC(=O)N(C)C)nc4)ncn3)cccc12` [Compound 1076] came in with a Ki of less than 30 nM.

`CNC(=O)c1ccnc2c([C@H](C)CNc3cc(-c4cnc(NCC(=O)N(C)C)nc4)ncn3)cccc12` [Compound 1077] returned a Ki of less than 30 nM.

In turn, `CNC(=O)c1ccnc2c([C@H](C)CNc3cc(-c4cnc(NC5CCN(C)CC5)nc4)ncn3)cccc12` [Compound 1078] gave a Ki of less than 30 nM.

In the case of `CNC(=O)c1c(F)cnc2c([C@H](C)CNc3cc(-c4cnc(NC5CCN(C)CC5)nc4)ncn3)cccc12` [Compound 1079], the Ki was less than 30 nM.

`CNC(=O)c1ccnc2c([C@H](C)CNc3cc(-c4cnc(NC5CCN(CC(F)(F)F)CC5)nc4)ncn3)cccc12` [Compound 1080] yielded a Ki of less than 30 nM.

For `CNC(=O)c1ccnc2c([C@H](C)CNc3cc(-c4cnc(N(C)C5CCN(C(C)=O)CC5)nc4)ncn3)cccc12` [Compound 1081], the Ki was less than 30 nM.

As for `CNC(=O)c1c(F)cnc2c([C@H](C)CNc3cc(-c4cnc(N(C)C5CCN(CC(F)(F)F)CC5)nc4)ncn3)cccc12` [Compound 1082], the Ki was less than 30 nM.

`CNC(=O)c1ccnc2c([C@H](C)CNc3cc(-c4ccc(NC5CCN(CC(F)F)CC5)nc4)ncn3)cccc12` [Compound 1083] showed a Ki of less than 30 nM.

`CNC(=O)c1c(F)cnc2c([C@H](C)CNc3cc(-c4ccc(NC5CCN(CC(F)F)CC5)nc4)ncn3)cccc12` [Compound 1084]: the Ki was less than 30 nM.

Consider `CNC(=O)c1ccnc2c([C@H](C)CNc3cc(-c4ccc(NC5CCN(CC(F)(F)F)CC5)nc4)ncn3)cccc12` [Compound 1085], for which the Ki was less than 30 nM.

As for `CNC(=O)c1c(F)cnc2c([C@H](C)CNc3cc(-c4ccc(NC5CCN(CC(F)(F)F)CC5)nc4)ncn3)cccc12` [Compound 1086], the Ki is less than 30 nM.

`CNC(=O)c1c(F)cnc2c([C@H](C)CNc3cc(-c4ccc(N(C)C5CCN(C)CC5)nc4)ncn3)cccc12` [Compound 1087]: the Ki is less than 30 nM.

Regarding `CNC(=O)c1ccnc2c([C@H](C)CNc3cc(-c4ccc(N(C)C5CCN(C(C)=O)CC5)nc4)ncn3)cccc12` [Compound 1088], the Ki is less than 30 nM.

`CNC(=O)c1c(F)cnc2c([C@H](C)CNc3cc(-c4ccc(N(C)C5CCN(CC(F)F)CC5)nc4)ncn3)cccc12` [Compound 1089]: the Ki was less than 30 nM.

As for `CNC(=O)c1c(F)cnc2c([C@H](C)CNc3cc(-c4ccc(N(C)C5CCN(CC(F)(F)F)CC5)nc4)ncn3)cccc12` [Compound 1090], the Ki is less than 30 nM.
